Assay results from US20130096067A1, “DROSOPHILA TUMOR STEM CELL MODEL AND USES THEREOF” (priority 2011, published 2013).
Peptide text beside a SMILES is read from it. * marks the point of attachment. Boc = CC(C)(C)OC(=O)*

Test system: Raf-1^gof intestinal tumors
Conditions: for Log2 (fold) (luciferase activity, log2 of the fold difference relative to DMSO controls) / Fold (luciferase activity, fold difference relative to DMSO controls): screen of 480 ICCB compounds in vials, compounds fed to flies with one-day old Raf-1^gof tumors, esg-Gal4 luciferase; for Log2 (fold) (luciferase activity, log2 of the fold difference relative to DMSO controls) / Fold (luciferase activity, fold difference relative to DMSO controls) / Log2 (fold) of luciferase activity relative to DMSO controls / Fold (luciferase activity relative to DMSO controls): assessed three days later; for Fold (luciferase activity, fold difference relative to DMSO controls) / Fold (luciferase activity relative to DMSO controls): averaged from multiple wells; for Log2 (fold) of luciferase activity relative to DMSO controls / Fold (luciferase activity relative to DMSO controls): ICCB compounds fed in vials to flies with one-day old Raf-1^gof tumors
Wherever Fold (luciferase activity relative to DMSO controls) is given: test concentration or dose not given here.
Wherever Fold (luciferase activity, fold difference relative to DMSO controls) is given: test concentration or dose not given here.
Wherever Log2 (fold) (luciferase activity, log2 of the fold difference relative to DMSO controls) is given: test concentration or dose not given here.
Wherever Log2 (fold) of luciferase activity relative to DMSO controls is given: test concentration or dose not given here.

Row | Compound | Log2 (fold) (luciferase activity, log2 of the fold difference relative to DMSO controls) | Fold (luciferase activity, fold difference relative to DMSO controls) | Log2 (fold) of luciferase activity relative to DMSO controls | Fold (luciferase activity relative to DMSO controls) [fold] | Fold (Table 3 summary of hits, Screen ICCB, luciferase relative to DMSO, fed three consecutive days in vials) [fold]
1 | CC(C)C[C@H](NC(=O)[C@@H](O)[C@H](N)Cc1ccccc1)C(=O)O [Bestatin] | −0.688 | 0.621 | – | – | –
2 | CCCCCCCCCCCCC/C=C/[C@@H](O)[C@@H](N)CO [SPHINGOSINE] | – | – | −0.030 | 0.980 | –
3 | CCCCC/C=C/C=C1/C(=O)C=C[C@@H]1C/C=C\CCCC(=O)O [15d-Prostaglandin J2] | – | – | 0.294 | 1.226 | –
4 | Clc1cccc(Cl)c1N=C1NCCN1 [clonidine] | – | – | 0.087 | 1.062 | –
5 | CCCCCC[C@@H]([C@@H](C)O)n1cnc2c(N)ncnc21.Cl [EHNA HCl] | −0.312 | 0.805 | – | – | –
6 | LYSOPHOSPHATIDIC ACID | −0.509 | 0.703 | – | – | –
7 | CCN(CC)CC(=O)Nc1c(C)cccc1C [LIDOCAINE] | – | – | 0.049 | 1.035 | –
8 | CCCNCC(O)COc1ccccc1C(=O)CCc1ccccc1 (centres unmarked) [PROPAFENONE] | −0.214 | 0.862 | – | – | –
9 | COC(=O)C1=C(C)NC(C)=C(C(=O)OC)C1c1ccccc1[N+](=O)[O-] [NIFEDIPINE] | −0.417 | 0.749 | – | – | –
10 | C[C@H](CCC(=O)O)C[C@H](C)C[C@H](C)C(=O)/C=C(\O)[C@H](C)C[C@H](C)C/C=C/[C@@H](C)[C@@H](O)[C@@H](C)[C@@H](O)C[C@@H]1CC[C@@](C)([C@H]2CC[C@@](C)([C@@H](C)O)O2)O1 [ionomycin] | −0.591 | 0.664 | – | – | –
11 | C=C1O[C@@](CO)(n2cnc3c(N)ncnc32)[C@H](O)[C@@H]1O [decoyinine] | −0.298 | 0.813 | – | – | –
12 | CCNC(=O)[C@H]1O[C@@H](n2cnc3c(N)ncnc32)[C@H](O)[C@@H]1O [5′-N-Ethylcarboxamidoadenosine (NECA)] | – | – | −0.024 | 0.983 | –
13 | CC1=C(/C=C/C(C)=C/C=C/C(C)=C\C(=O)O)C(C)(C)CCC1 [13-CIS RETINOIC ACID] | – | – | 0.074 | 1.053 | –
14 | CCCCCCCCCCCCCCCCOCC(COP(=O)([O-])OCC[N+](C)(C)C)OC(C)=O (stereo not drawn) [ENANTIO-PAF C16] | – | – | −0.051 | 0.965 | –
15 | COc1cc2ncnc(Nc3cccc(Cl)c3)c2cc1OC [AG1478] | −0.655 | 0.635 | – | – | –
16 | CCCCC/C=C\CC1OC1CCCCCCCC(=O)O (centres unmarked) [LEUKOTOXIN A (9,10-EODE)] | −0.216 | 0.861 | – | – | –
17 | CCCCCCCCCCCCCCCCOC[C@H](COP(=O)([O-])OCC[N+](C)(C)C)OC(=O)NC [C-PAF] | – | – | 0.119 | 1.086 | –
18 | COC1=C2C[C@@H](C)C[C@H](OC)[C@H](O)[C@@H](C)/C=C(\C)[C@H](OC(N)=O)[C@@H](OC)/C=C\C=C(/C)C(=O)NC(=CC1=O)C2=O [geldanamycin] | −0.772 | 0.586 | – | – | –
19 | CC(C)[C@H](NC(=O)CNC(=O)OC(C)(C)C)C(=O)N[C@H](C=O)C(C)C [Boc-GVV-CHO] (Boc-Gly-Val-Val-aldehyde) | −0.696 | 0.617 | – | – | –
20 | CCCCC[C@H](O)/C=C/C=C\C=C\C=C\[C@@H](O)[C@@H](O)CCCC(=O)O [LIPOXIN A4] | – | – | 0.046 | 1.033 | –
21 | COc1ccc2c(c1)c(CC(=O)N1CCOCC1)c(C)n2C(=O)c1ccc(Cl)cc1 [BML-190] | – | – | −0.202 | 0.869 | –

Row | Compound | Log2 (fold) (luciferase activity, log2 of the fold difference relative to DMSO controls) | Fold (luciferase activity, fold difference relative to DMSO controls) | Log2 (fold) of luciferase activity relative to DMSO controls | Fold (luciferase activity relative to DMSO controls) [fold] | Fold (Table 3 summary of hits, Screen ICCB, luciferase relative to DMSO, fed three consecutive days in vials) [fold]
22 | CCOC(=O)C1=C(C)NC(C)=C(C(=O)OC)C1c1cccc([N+](=O)[O-])c1 (centres unmarked) [NITRENDIPINE] | −0.400 | 0.758 | – | – | –
23 | O=S(=O)(c1cccc2c(I)cccc12)N1CCCNCC1 [ML7] | – | – | 0.192 | 1.143 | –
24 | ICRF-193 [reference compound] | −1.459 | 0.364 | – | – | 0.364
25 | CC1=C(C)C(=O)C(CCCCC#CCCCC#CCO)=C(C)C1=O [AA-861] | −0.444 | 0.735 | – | – | –
26 | COc1ccc([C@@H]2Sc3ccccc3N(CCN(C)C)C(=O)[C@@H]2OC(C)=O)cc1 [DILTIAZEM] | – | – | −0.205 | 0.868 | –
27 | C[C@@H](N)[C@H]1CC[C@H](C(=O)Nc2ccncc2)CC1 [Y-27632] | −0.380 | 0.768 | – | – | –
28 | CN(C)CCCn1cc(C2=C(c3c[nH]c4ccccc34)C(=O)NC2=O)c2ccccc21 [GF-109203X] | −0.238 | 0.848 | – | – | –
29 | Clc1ccc(C2CC3CCC2N3)cn1 (racemic) [epibatidine (+/−)] | −0.457 | 0.729 | – | – | –
30 | COc1c(C)c2c(c(O)c1C/C=C(\C)CCC(=O)O)C(=O)OC2 [Mycophenolic acid] | −0.577 | 0.670 | – | – | –
31 | CCCCC(C)(O)C/C=C/[C@H]1[C@H](O)CC(=O)[C@@H]1CCCCCCC(=O)O (mixture of isomers) [MISOPROSTOL, FREE ACID] | – | – | −0.137 | 0.909 | –
32 | CO/C1=C\C(C)=C\[C@@H](C)[C@@H](O)[C@@H](C)C/C(C)=C/C=C/[C@H](OC)[C@@H]([C@@H](C)[C@@H](O)[C@H](C)[C@@]2(O)C[C@@H](O)[C@H](C)[C@@H](C(C)C)O2)OC1=O [bafilomycin A1] | −0.234 | 0.850 | – | – | –
33 | O=C1CCc2c(ccc3ccccc23)O1 [Splitomycin] | −0.241 | 0.846 | – | – | –
34 | CCCCC/C=C\C/C=C\C/C=C\C/C=C\CCCCCC(=O)O [ADRENIC ACID (22:4, n-6)] | −0.364 | 0.777 | – | – | –
35 | CCCCCCCCCCCCC/C=C/[C@@H](O)[C@H](CO)NCCCCCCCC [C8 CERAMINE] | −0.302 | 0.811 | – | – | –
36 | COc1cc2nc(N3CCN(C(=O)c4ccco4)CC3)nc(N)c2cc1OC [prazocin] | – | – | 0.011 | 1.008 | –
37 | CCCCCCOC(=O)[C@]1(O)C[C@@H]2O[C@@]1(C)n1c3ccccc3c3c4c(c5c6ccccc6n2c5c31)C(=O)NC4 [KT-5720] | −0.246 | 0.843 | – | – | –
38 | N#C/C(=C/c1ccc(O)c(O)c1)C(=O)NCc1ccccc1 [AG-490] | −0.272 | 0.828 | – | – | –
39 | CN1C(=O)[C@]23CC4=CC=C[C@H](O)[C@H]4N2C(=O)[C@@]1(CO)SS3 [Gliotoxin] | −0.478 | 0.718 | – | – | –
40 | CC(C)(C)c1cc(O)c(C(C)(C)C)cc1O [2,5-ditertbutylhydroquinone] | −0.293 | 0.816 | – | – | –
41 | O=c1c2ccccc2[se]n1-c1ccccc1 [Ebselen] | – | – | −0.168 | 0.890 | –
